From patent US10633416B2 (BGI SHENZHEN CO., LIMITED, priority 2014, dated 2020)

Tested on: potassium ion channel current of the DRG neurons
Type: cell-based, SD rats
Conditions: 5 mM

## Nc1ccncc1 [4AP, 4-aminopyridine]
  Current inhibition rate: 0.338
  Current recorded after loading: 0.9766 nA
